Assay results as given in patent US11759436B2, “Dosage regimen of an S1P receptor modulator” (Novartis AG, priority 2009, dated 2023).

Legend:
[1] = tested on: Patients with moderate asthma; test: Study of FTY720 vs placebo in patients with moderate asthma (pulmonary function tests, safety); format: in vivo, human; settings: daily dosage of 0.5 mg, 10 day treatment
Description: Patients with moderate asthma are divided into 3 dosing cohorts of 12 patients each. In each cohort, the 12 patients are randomized to FTY720 (0.5 mg, 1.25 mg, and 2.5 mg in cohorts 1, 2, and 3 respectively) or placebo in a 3:1 ratio resulting in 9 patients treated with FTY720 at each dose level and 9 patients treated with placebo. The study consists of a screening period of between 12 and 26 days, baseline and a 10 day treatment period followed by a study completion evaluation (performed 1-7 days after the last dose). Two screening visits are performed, the initial Screening visit and a second visit at Day −7 (+/−1 day). […] Short-acting […] agonist use prior to treatment with study medication is also recorded in this 14 day period. […] PFT profiling is assessed at 7 time points during the visit and routine baseline evaluations are performed. On Day 1, patients are randomized in a 3:1 ratio to FTY720 or placebo and PFT profiling is assessed at 8 time points (namely pre-dose, then at 1, 2, 3, 4, 5, 6 and 12 hours post-dose). PFT assessments are also performed on Days 2, 3, 7 (all single time points assessed at approximately the same clock time as the 6 hours post-dose PFT on Day 1) and Day 10 (7 time points, namely pre-dose and then at 1, 2, 3, 4, 5 and 6 hours post-dose). […] The magnitude of the bronchoconstriction is primarily assessed by the baseline-adjusted FEV1 AUC0-6 h on Day 1. […]

[2] = tested on: patients with Relapsing-remitting Multiple Sclerosis; test: Study of oral fingolimod 0.5 mg/day or 1.25 mg/day vs interferon beta1-a in patients with RRMS; format: in vivo, human
Description: The patients are seen clinically every month for 3 months and every 3 months thereafter. The Expanded Disability Status Scale (EDSS) is performed every 3 months, the MS Functional Composite (MSFC) every 6 months, and MRI annually. Monitoring by ophthalmic examination, dermatologic examination, pulmonary function tests, chest X-ray and/or CT, Holter monitoring, and echocardiography are performed. Participants who completed 1 year on treatment are offered an optional extension phase.

[3] = tested on: Cardiac Rate and Rhythm in Healthy Patients; settings: administration of 1.25 mg of FTY720; healthy subjects; cited from earlier work
[4] = both fingolimod groups (0.5 and 1.25 mg/day), month 12

- Basal-cell carcinoma ([2]; fingolimod 0.5 mg/d): 3 (0.7) n (%)
- Breast cancer ([2]; fingolimod 0.5 mg/d): 2 (0.5) n (%)
- Malignant melanoma ([2]; fingolimod 0.5 mg/d): 3 (0.7) n (%)
- Squamous-cell carcinoma ([2]; fingolimod 0.5 mg/d): 0 n (%)
- Basal-cell carcinoma ([2]; fingolimod 1.25 mg/day): 2 (0.5) n (%)
- Breast cancer ([2]; fingolimod 1.25 mg/day): 2 (0.5) n (%)
- Malignant melanoma ([2]; fingolimod 1.25 mg/day): 0 n (%)
- Squamous-cell carcinoma ([2]; fingolimod 1.25 mg/day): 0 n (%)
SMILES: CCCCCCCCc1ccc(CCC(N)(CO)CO)cc1.Cl [Fingolimod, 2-amino-2-[2-(4-octylphenyl)ethyl]propane-1,3-diol]
- safety and tolerability [1]: safe and well tolerated
- proportion of relapse-free patients ([2]; RRMS patients, fingolimod, dose not stated): 83%
- reduction in relapses vs interferon beta1-a ([2]; RRMS patients, higher dose (1.25 mg/day)): 38%
- reduction in relapses vs interferon beta1-a ([2]; RRMS patients, lower dose (0.5 mg/day)): 52%
- Annualized relapse rate ([2]; RRMS patients, oral fingolimod 0.5 mg/day): 0.16
- Annualized relapse rate ([2]; RRMS patients, oral fingolimod 1.25 mg/day): 0.20
- MRI lesion activity: number of gadolinium-enhancing T1 lesions [2, 4]: reduction
- MRI lesion activity: number of new or newly enlarging T2 lesions [2, 4]: reduction
- decrease in heart rate [3]: approximately 8 beets/min
